Experimental data taken from ChEMBL document CHEMBL3792338, “Discovery of biaryls as RORγ inverse agonists by using structure-based design” (Bioorg Med Chem Lett, 2016).
≈ marks a conversion by molar mass, not a printed value.

Legend:
[1] = target: T1, Nuclear receptor ROR-gamma (Homo sapiens, UniProt P51449); assay: Inverse agonist activity at recombinant human GST-tagged ROR-gamma receptor ligand binding domain assessed as inhibition of receptor and co-activator TRAP220 interaction by FRET assay
T1 sequence (P51449 whole entry): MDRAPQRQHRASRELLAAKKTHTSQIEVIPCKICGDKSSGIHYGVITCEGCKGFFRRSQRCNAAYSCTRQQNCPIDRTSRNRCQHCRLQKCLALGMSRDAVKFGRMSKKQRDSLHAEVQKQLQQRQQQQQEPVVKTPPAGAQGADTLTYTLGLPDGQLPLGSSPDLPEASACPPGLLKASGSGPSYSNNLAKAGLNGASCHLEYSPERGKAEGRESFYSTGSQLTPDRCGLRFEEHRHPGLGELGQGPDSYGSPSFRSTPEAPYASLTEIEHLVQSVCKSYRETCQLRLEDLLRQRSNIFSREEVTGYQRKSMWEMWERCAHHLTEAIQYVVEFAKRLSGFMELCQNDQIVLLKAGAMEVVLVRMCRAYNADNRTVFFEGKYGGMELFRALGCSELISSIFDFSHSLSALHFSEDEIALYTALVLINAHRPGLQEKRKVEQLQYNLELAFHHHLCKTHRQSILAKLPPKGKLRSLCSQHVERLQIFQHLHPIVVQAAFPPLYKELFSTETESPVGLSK

[2] = Aqueous solubility of compound at pH 6.8; format: physicochemical
[3] = target: Cytochrome P450 3A4 (Homo sapiens, UniProt P08684); assay: Inhibition of CYP3A4 (unknown origin); format: ADME
[4] = target: T2, Nuclear receptor subfamily 1 group I member 2 (Homo sapiens, UniProt O75469); assay: Agonist activity at PXR (unknown origin)
T2 sequence (O75469 whole entry): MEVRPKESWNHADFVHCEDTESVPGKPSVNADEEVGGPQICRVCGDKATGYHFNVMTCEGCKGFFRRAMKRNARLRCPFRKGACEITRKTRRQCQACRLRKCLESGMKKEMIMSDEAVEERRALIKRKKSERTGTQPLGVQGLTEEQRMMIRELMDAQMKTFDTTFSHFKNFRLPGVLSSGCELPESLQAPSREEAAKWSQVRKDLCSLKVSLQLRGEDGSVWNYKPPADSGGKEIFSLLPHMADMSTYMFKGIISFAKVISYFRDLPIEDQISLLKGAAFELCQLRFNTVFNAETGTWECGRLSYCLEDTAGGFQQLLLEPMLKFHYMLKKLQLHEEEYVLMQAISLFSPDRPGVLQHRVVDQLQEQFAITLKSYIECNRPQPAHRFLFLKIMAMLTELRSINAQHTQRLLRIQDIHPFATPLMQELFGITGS

[5] = target: T2, Nuclear receptor subfamily 1 group I member 2; assay: Agonist activity at PXR (unknown origin) at 10 uM
[6] = target: Liver X receptor (Homo sapiens) (UniProt Q13133+P55055); assay: Agonist activity at LXR (unknown origin) at 10 uM; format: protein assay
[7] = target: T3, Bile acid receptor (Homo sapiens) (UniProt Q96RI1); assay: Agonist activity at FXR (unknown origin) at 10 uM
T3 sequence (whole entry): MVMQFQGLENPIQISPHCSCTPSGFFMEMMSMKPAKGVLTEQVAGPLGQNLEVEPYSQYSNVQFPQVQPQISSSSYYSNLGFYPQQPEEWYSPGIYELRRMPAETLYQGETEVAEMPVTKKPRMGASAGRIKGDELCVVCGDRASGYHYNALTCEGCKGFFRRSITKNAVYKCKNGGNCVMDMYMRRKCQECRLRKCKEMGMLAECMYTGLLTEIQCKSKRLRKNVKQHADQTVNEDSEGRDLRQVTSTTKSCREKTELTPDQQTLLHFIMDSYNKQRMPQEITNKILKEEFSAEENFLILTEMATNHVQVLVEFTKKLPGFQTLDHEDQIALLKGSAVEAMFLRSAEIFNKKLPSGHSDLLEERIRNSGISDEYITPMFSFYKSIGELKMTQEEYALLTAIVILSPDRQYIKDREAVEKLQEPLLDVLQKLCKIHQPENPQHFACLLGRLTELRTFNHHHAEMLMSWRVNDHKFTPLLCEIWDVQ

[8] = target: T4, Nuclear receptor ROR-alpha (Homo sapiens, UniProt P35398); assay: Inverse agonist activity at human ROR-alpha transfected in HEK293T cells by Gal4 luciferase reporter gene assay; format: cell-based, HEK-293T
T4 sequence (P35398 whole entry): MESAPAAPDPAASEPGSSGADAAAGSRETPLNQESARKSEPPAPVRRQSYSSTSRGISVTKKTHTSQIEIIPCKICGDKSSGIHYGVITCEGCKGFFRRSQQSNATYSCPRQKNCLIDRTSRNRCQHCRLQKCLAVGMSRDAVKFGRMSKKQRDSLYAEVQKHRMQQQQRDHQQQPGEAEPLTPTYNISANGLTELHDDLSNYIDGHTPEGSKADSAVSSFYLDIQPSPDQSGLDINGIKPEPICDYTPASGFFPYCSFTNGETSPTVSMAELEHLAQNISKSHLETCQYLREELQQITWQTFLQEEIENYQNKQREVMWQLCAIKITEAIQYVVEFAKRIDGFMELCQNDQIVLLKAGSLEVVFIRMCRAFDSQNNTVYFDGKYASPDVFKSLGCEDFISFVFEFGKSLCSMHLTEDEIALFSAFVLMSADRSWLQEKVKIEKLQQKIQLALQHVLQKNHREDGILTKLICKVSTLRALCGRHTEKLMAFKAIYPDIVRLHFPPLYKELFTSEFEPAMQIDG

[9] = target: T5, Nuclear receptor ROR-beta (Homo sapiens, UniProt Q92753); assay: Inverse agonist activity at human ROR-beta transfected in HEK293T cells by Gal4 luciferase reporter gene assay; format: cell-based, HEK-293T
T5 sequence (Q92753 whole entry): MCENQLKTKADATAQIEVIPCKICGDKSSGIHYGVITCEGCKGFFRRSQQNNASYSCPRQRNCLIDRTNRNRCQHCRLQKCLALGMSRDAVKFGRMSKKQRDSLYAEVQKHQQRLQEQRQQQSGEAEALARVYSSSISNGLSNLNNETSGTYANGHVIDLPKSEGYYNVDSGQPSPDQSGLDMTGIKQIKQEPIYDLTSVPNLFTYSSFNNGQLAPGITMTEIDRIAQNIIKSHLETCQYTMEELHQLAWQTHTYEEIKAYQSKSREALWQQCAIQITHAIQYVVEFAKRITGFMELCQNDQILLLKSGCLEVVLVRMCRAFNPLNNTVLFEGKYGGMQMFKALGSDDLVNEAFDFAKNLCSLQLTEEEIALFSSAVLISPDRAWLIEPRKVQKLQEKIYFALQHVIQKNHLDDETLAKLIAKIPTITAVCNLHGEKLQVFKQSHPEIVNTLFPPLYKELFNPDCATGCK

Sequence of Cytochrome P450 3A4 (P08684 whole entry): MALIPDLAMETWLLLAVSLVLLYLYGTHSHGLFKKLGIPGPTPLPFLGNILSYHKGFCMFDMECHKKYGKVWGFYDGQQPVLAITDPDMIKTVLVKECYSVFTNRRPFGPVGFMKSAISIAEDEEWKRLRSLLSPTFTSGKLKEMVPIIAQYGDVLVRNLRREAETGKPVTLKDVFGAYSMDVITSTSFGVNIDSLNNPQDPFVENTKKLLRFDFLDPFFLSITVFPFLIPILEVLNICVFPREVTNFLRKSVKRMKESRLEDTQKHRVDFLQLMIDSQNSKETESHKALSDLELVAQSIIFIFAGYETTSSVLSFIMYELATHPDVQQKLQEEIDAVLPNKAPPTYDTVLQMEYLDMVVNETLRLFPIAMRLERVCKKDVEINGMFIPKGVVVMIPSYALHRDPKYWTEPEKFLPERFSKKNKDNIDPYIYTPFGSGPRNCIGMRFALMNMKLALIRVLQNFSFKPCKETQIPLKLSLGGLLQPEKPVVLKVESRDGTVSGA

Row | IC50 [1] | Structure (SMILES) | other results
1 | > 10 µM | CNC(=O)c1cccc(-c2ccc(N(CC(F)(F)F)S(=O)(=O)c3cccc(Cl)c3)cc2)c1 | –
2 | 3.8 µM | NC(=O)c1cccc(-c2ccc(N(CC(F)(F)F)S(=O)(=O)c3cccc(Cl)c3)cc2)c1 | –
3 | > 10 µM | Cc1cc(C2(C(=O)O)CC2)ccc1-c1ccc(N(CC(F)(F)F)S(=O)(=O)c2cccc(Cl)c2)cc1 | –
4 | 0.52 µM | Cc1cc2nccn2cc1-c1ccc(N(CC(F)(F)F)S(=O)(=O)c2cccc(Cl)c2)cc1 | –
5 | 6.5 µM | Cc1cc(CO)ccc1-c1ccc(N(CC(F)(F)F)S(=O)(=O)c2cccc(Cl)c2)cc1 | –
6 | 1.5 µM | Cn1ccc2c(S(=O)(=O)N(CC(F)(F)F)c3ccc(-c4cccc(C(N)=O)c4)cc3)cccc21 | –
7 | 0.52 µM | Cc1cc(O)ccc1-c1ccc(N(CC(F)(F)F)S(=O)(=O)c2cccc(Cl)c2)cc1 | –
8 | 4.2 µM | NC(=O)c1ccc(Cl)c(-c2ccc(N(CC(F)(F)F)S(=O)(=O)c3cccc(Cl)c3)cc2)c1 | –
9 | 3.2 µM | CNC(=O)c1cccc(-c2ccc(N(CC(F)(F)F)S(=O)(=O)c3cccc4c3ccn4C)cc2)c1 | –
10 | 7.8 µM | CNC(=O)c1ccc(F)c(-c2ccc(N(CC(F)(F)F)S(=O)(=O)c3cccc(Cl)c3)cc2)c1 | –

Further lines, the molecule ahead of its results:

Row | Structure (SMILES) | IC50 [1] | other results
11 | Cc1cc(C2(C(=O)O)CC2)ccc1-c1ccc(N(CC(F)(F)F)S(=O)(=O)c2cccc3c2ccn3C)cc1 | 0.91 µM | –
12 | Cc1cc(CO)ccc1-c1ccc(N(CC(F)(F)F)S(=O)(=O)c2cccc3c2ccn3C)cc1 | 0.63 µM | –
13 | Cc1ccc(S(=O)(=O)N(CC(F)(F)F)c2ccc3c(c2)CCCN3C(=O)c2c(F)cccc2Cl)cc1C | 0.01 µM | solubility ([2]; buffer): Insoluble; inhibition (INH) [3]: Active; Activity [4]: Active
14 | Cc1ccc(S(=O)(=O)Nc2ccc3c(c2)CCCN3C(=O)c2cccs2)cc1C | 1.47 µM | –
15 | Cc1cc(O)ccc1-c1ccc(N(CC(F)(F)F)S(=O)(=O)c2cccc3c2ccn3C)cc1 | 0.21 µM | –
16 | O=C(c1ccc(F)c(-c2ccc3c(c2)CCCN3C(=O)c2c(F)cccc2Cl)c1)N1CCCC1 | 1.9 µM | –
17 | O=S(=O)(c1cccc(Cl)c1)N(CC(F)(F)F)c1ccc(C(O)(C(F)(F)F)C(F)(F)F)cc1 | 0.072 µM | solubility ([2]; aqueous, read-out: solubility): < 0.5 µg/mL; Activity [5]: 100%; Activity [6]: 100%; Activity [7]: 100%
18 | Cn1ccc2c(S(=O)(=O)N(CC(F)(F)F)c3ccc(C(O)(C(F)(F)F)C(F)(F)F)cc3)cccc21 | 0.072 µM | solubility ([2]; aqueous, read-out: solubility): < 0.5 µg/mL; Activity [5]: 100%; Activity [6]: 100%; Activity [7]: 100%
19 | NC(=O)c1ccccc1-c1ccc2c(c1)CCCN2C(=O)c1c(F)cccc1Cl | > 10 µM | –
20 | CNS(=O)(=O)c1cccc(-c2ccc3c(c2)CCCN3C(=O)c2c(F)cccc2Cl)c1 | 6.4 µM | –
21 | NS(=O)(=O)c1cccc(-c2ccc3c(c2)CCCN3C(=O)c2c(F)cccc2Cl)c1 | 10 µM | –
22 | CNC(=O)c1ccc(F)c(-c2ccc(N(CC(F)(F)F)S(=O)(=O)c3cccc4c3ccn4C)cc2)c1 | 4.7 µM | –
23 | Cc1ccc(S(=O)(=O)N(CC(F)(F)F)c2ccc3c(c2)CCCN3C(=O)c2cccs2)cc1C | 0.2 µM | –
24 | NC(=O)c1ccc(Cl)c(-c2ccc3c(c2)CCCN3C(=O)c2c(F)cccc2Cl)c1 | – | EC50 [8]: 0.39 µM; EC50 [9]: 1.1 µM; solubility ([2]; aqueous, read-out: solubility): 0.04 µg/mL (≈ 0.0902 µM)
25 | O=C(c1cc(F)cc(-c2ccc3c(c2)CCCN3C(=O)c2c(F)cccc2Cl)c1)N1CCOCC1 | 8.1 µM | –
26 | Cn1ccc2c(S(=O)(=O)N(CC(F)(F)F)c3ccc4c(c3)CCCN4C(=O)c3cccs3)cccc21 | 0.056 µM | –
27 | Cc1cc2nccn2cc1-c1ccc(N(CC(F)(F)F)S(=O)(=O)c2cccc3c2ccn3C)cc1 | 2.8 µM | –
